Tests used:
[1] = target: T1, Baker’s yeast α-glucosidase enzyme (Saccharomyces cerevisiae, UniProt P53341); test: biochemical
T1 construct: purchased
Text: The sample solution was replaced by DMSO as a control. Acarbose was used as a positive control.

T1 sequence (P53341 whole entry): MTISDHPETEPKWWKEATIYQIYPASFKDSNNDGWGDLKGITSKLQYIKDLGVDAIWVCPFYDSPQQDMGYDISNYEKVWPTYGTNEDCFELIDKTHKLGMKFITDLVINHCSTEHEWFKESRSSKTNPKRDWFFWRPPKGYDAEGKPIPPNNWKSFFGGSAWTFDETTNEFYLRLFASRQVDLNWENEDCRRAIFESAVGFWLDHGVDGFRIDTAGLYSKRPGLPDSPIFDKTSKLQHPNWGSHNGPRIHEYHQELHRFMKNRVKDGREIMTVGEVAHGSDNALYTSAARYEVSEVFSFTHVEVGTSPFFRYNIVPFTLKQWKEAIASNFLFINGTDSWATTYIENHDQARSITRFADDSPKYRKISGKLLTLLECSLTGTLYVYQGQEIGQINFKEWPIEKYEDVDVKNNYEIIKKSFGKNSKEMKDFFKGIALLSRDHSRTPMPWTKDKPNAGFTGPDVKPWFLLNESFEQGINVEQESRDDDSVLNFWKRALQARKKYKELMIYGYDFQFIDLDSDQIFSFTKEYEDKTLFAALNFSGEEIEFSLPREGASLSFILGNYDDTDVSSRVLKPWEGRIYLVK

SMILES	IC50 [1] [µM]	melting point [°C]
Clc1ccc2sc(SCc3cn(Cc4ccc(Br)cc4)nn3)nc2c1 [Compound 6n, 2-(((1-(4-Bromobenzyl)-1H-1,2,3-triazol-4-yl)methyl)thio)-5-chlorobenzo[d]thiazole]	28	114 to 116
Clc1ccc2sc(SCc3cn(Cc4ccccc4Br)nn3)nc2c1 [Compound 6k, 2-(((1-(2-Bromobenzyl)-1H-1,2,3-triazol-4-yl)methyl)thio)-5-chlorobenzo[d]thiazole]	48.4	119 to 120
c1ccc(Cn2cc(CSc3nc4ccccc4s3)nn2)cc1 [Compound 6g, 2-(((1-Benzyl-1H-1,2,3-triazol-4-yl)methyl)thio)benzo[d]thiazole]	> 100	109 to 110
Fc1ccccc1Cn1cc(CSc2nc3cc(Cl)ccc3s2)nn1 [Compound 6j, 5-Chloro-2-(((1-(2-fluorobenzyl)-1H-1,2,3-triazol-4-yl)methyl)thio)benzo[d]thiazole]	45.9	115 to 117
Clc1ccc(Cn2cc(CSc3nc4cc(Cl)ccc4s3)nn2)cc1 [Compound 6m, 5-Chloro-2-(((1-(4-chlorobenzyl)-1H-1,2,3-triazol-4-yl)methyl)thio)benzo[d]thiazole]	28.2	111 to 112
Brc1ccccc1Cn1cc(CSc2nc3ccccc3s2)nn1 [Compound 6c, 2-(((1-(2-Bromobenzyl)-1H-1,2,3-triazol-4-yl)methyl)thio)benzo[d]thiazole]	37.4	104 to 106
Clc1cc(Cl)cc(Cn2cc(CSc3nc4cc(Cl)ccc4s3)nn2)c1 [Compound 6o, 5-Chloro-2-(((1-(3,5-dichlorobenzyl)-1H-1,2,3-triazol-4-yl)methyl)thio)benzo[d]thiazole]	22.3	124 to 126
Fc1ccccc1Cn1cc(CSc2nc3ccccc3s2)nn1 [Compound 6f, 2-(((1-(2-Fluorobenzyl)-1H-1,2,3-triazol-4-yl)methyl)thio)benzo[d]thiazole]	> 100	86 to 88
Fc1cccc(Cn2cc(CSc3nc4ccccc4s3)nn2)c1 [Compound 6d, 2-(((1-(3-Fluorobenzyl)-1H-1,2,3-triazol-4-yl)methyl)thio)benzo[d]thiazole]	61.1	112 to 114
Clc1ccc(Cn2cc(CSc3nc4ccccc4s3)nn2)cc1 [Compound 6e, 2-(((1-(4-Chlorobenzyl)-1H-1,2,3-triazol-4-yl)methyl)thio)benzo[d]thiazole]	27.4	119 to 120
Clc1ccc2sc(SCc3cn(Cc4ccccc4)nn3)nc2c1 [Compound 6r, 2-(((1-Benzyl-1H-1,2,3-triazol-4-yl)methyl)thio)-5-chlorobenzo[d]thiazole]	44.4	142 to 144
Clc1ccccc1Cn1cc(CSc2nc3ccccc3s2)nn1 [Compound 6b, 2-(((1-(2-Chlorobenzyl)-1H-1,2,3-triazol-4-yl)methyl)thio)benzo[d]thiazole]	> 100	110 to 111
Clc1ccc2sc(SCc3cn(Cc4ccccc4Cl)nn3)nc2c1 [Compound 6l, 5-Chloro-2-(((1-(2-chlorobenzyl)-1H-1,2,3-triazol-4-yl)methyl)thio)benzo[d]thiazole]	33.6	128 to 130
CC(C)(C)c1ccc(Cn2cc(CSc3nc4ccccc4s3)nn2)cc1 [Compound 6i, 2-(((1-(4-(Tert-butyl)benzyl)-1H-1,2,3-triazol-4-yl)methyl)thio)benzo[d]thiazole]	29.4	77 to 78
Brc1ccc(Cn2cc(CSc3nc4ccccc4s3)nn2)cc1 [Compound 6a, 2-(((1-(4-Bromobenzyl)-1H-1,2,3-triazol-4-yl)methyl)thio)benzo[d]thiazole]	28.7	112 to 114
Fc1cccc(Cn2cc(CSc3nc4cc(Cl)ccc4s3)nn2)c1 [Compound 6p, 5-Chloro-2-(((1-(3-fluorobenzyl)-1H-1,2,3-triazol-4-yl)methyl)thio)benzo[d]thiazole]	38.6	140 to 141
Fc1ccc(Cn2cc(CSc3nc4cc(Cl)ccc4s3)nn2)cc1 [Compound 6q, 5-Chloro-2-(((1-(4-fluorobenzyl)-1H-1,2,3-triazol-4-yl)methyl)thio)benzo[d]thiazole]	53.1	108 to 109
